Columns and labels:
[1] = logP by HPLC on reversed phase columns (EEC directive 79/831 Annex V.A8); format: physicochemical; details: method [a]: LC-MS at pH 2.7, 0.1% formic acid in water / acetonitrile
Puccinia recondita = assay: In vivo preventive test on Puccinia recondita (brown rust on wheat); details: 500 ppm, wheat plants sprayed 24 h before contamination, graded 12 days after contamination
Protocol: Wheat plants (“Scipion” variety), sown in starter cups on a 50/50 peat soil-pozzolana substrate and grown at 22° C., are treated at the 1-leaf stage (10 cm height) by spraying with the active ingredient prepared as described above. Plants, used as controls, are treated with the mixture of acetone/tween/DMSO/water not containing the active material. After 24 hours, the plants are contaminated by spraying the leaves with an aqueous suspension of Puccinia recondita spores (100 000 spores per ml). The spores are collected from an infected plant and are suspended in water to containing 2.5 ml/l of Tween 80 at 10%. […] Grading (% of efficacy) is carried out 12 days after the contamination, in comparison with the control plants.

Septoria tritici = assay: In vivo preventive test on Septoria tritici (leaf spot on wheat); details: 500 ppm, wheat plants sprayed 24 h before contamination, graded 24 days after contamination
Protocol: Wheat plants (“Scipion” variety), sown in starter cups on a 50/50 peat soil-pozzolana substrate and grown at 22° C., are treated at the 1-leaf stage (10 cm height) by spraying with the active ingredient prepared as described above. Plants, used as controls, are treated with the mixture of acetone/tween/DMSO/water not containing the active material. After 24 hours, the plants are contaminated by spraying the leaves with an aqueous suspension of cryopreserved Septoria tritici spores (500 000 spores per ml). The contaminated wheat plants are incubated for 72 hours at 18° C. and at 100% relative humidity, and then for 21 days at 90% relative humidity. Grading (% of efficacy) is carried out 24 days after the contamination, in comparison with the control plants.

Sphaerotheca fuliginea = assay: In vivo preventive test on Sphaerotheca fuliginea (powdery mildew on cucurbits); details: 500 ppm, gherkin plants sprayed 24 h before contamination, graded 12 days after contamination
Protocol: Gherkin plants (“Vert petit de Paris” variety), sown in starter cups on a 50/50 peat soil-pozzolana substrate and grown at 24° C., are treated at the Z11 cotyledon stage by spraying with the active ingredient prepared as described above. Plants, used as controls, are treated with the mixture of acetone/tween/DMSO/water not containing the active material. After 24 hours, the plants are contaminated by spraying the cotyledons with an aqueous suspension of Sphaerotheca fuliginea spores (100 000 spores per ml). The spores are collected from infected plants. […] Grading (% of efficacy) is carried out 12 days after the contamination, in comparison with the control plants.

Uromyces appendiculatus = assay: In vivo preventive test on Uromyces appendiculatus (bean rust); details: preventive, bean plants, dose of 500 ppm, grading 11 days after contamination
Protocol: Bean plants (“Saxa” variety), sown in starter cups on a 50/50 peat soil-pozzolana substrate and grown at 24° C., are treated at the 2-leaf stage (9 cm height) by spraying with the active ingredient prepared as described above. Plants, used as controls, are treated with the mixture of acetone/tween/DMSO/water not containing the active material. After 24 hours, the plants are contaminated by spraying the leaves with an aqueous suspension of Uromyces appendiculatus spores (150 000 spores per ml). The spores are collected from infected plants and are suspended in water containing 2.5 ml/1 of Tween 80 at 10%. […] Grading (% of efficacy) is carried out 11 days after the contamination, in comparison with the control plants.

[2] = compounds of formula (I), Table 1
[3] = amines of formula (III-a), Table 2

logP [1, 2]	SMILES	Eff. % (Puccinia recondita)	also measured
3.99[a]	Cc1c(C(=O)Nc2cccc3c2CC(C)C3(C)C)c(C(F)(F)Cl)nn1C (centres unmarked) [Example 72]	–	–
4.21[a]	CC1Cc2c(NC(=O)c3cn(C)nc3C(F)(F)C(F)(F)F)cccc2C1(C)C (racemic) [Example 85]	–	–
4.06[a]	CCc1nn(C)cc1C(=O)Nc1cccc2c1CC(CC)(CC)C2C (racemic) [Example 82]	–	–
4.46[a]	CC1Cc2c(NC(=O)c3c(C4CC4)nn(C)c3Cl)cccc2C1(C)C (racemic) [Example 78]	–	–
3.67[a]	CC1Cc2c(NC(=O)c3cn(C)nc3[N+](=O)[O-])cccc2C1(C)C (racemic) [Example 76]	–	–
3.27[a]	CCc1nn(C)cc1C(=O)Nc1cccc2c1CC(C)C2(C)C (racemic) [Example 73]	88%	Eff. % (Uromyces appendiculatus): 100%
4.32[a]	CCC1(CC)Cc2c(NC(=O)c3c(C)nn(C)c3F)cccc2C1C (racemic) [Example 70]	98%	Eff. % (Sphaerotheca fuliginea): 98%; Eff. % (Uromyces appendiculatus): 100%
3.83[a]	Cc1nn(C)c(Cl)c1C(=O)Nc1cccc2c1CC(C)C2(C)C (racemic) [Example 80]	98%	Eff. % (Uromyces appendiculatus): 100%
3.96[a]	Cc1nn(C)c(C(F)F)c1C(=O)Nc1cccc2c1CC(C)C2(C)C (racemic) [Example 87]	100%	Eff. % (Septoria tritici): 92%; Eff. % (Uromyces appendiculatus): 100%
4.09[a]	CC1Cc2c(NC(=O)c3c(C(F)(F)F)nn(C)c3C(F)F)cccc2C1(C)C (racemic) [Example 81]	–	–
4.09[a]	CC1Cc2c(NC(=O)c3c(C(F)(F)F)nn(C)c3F)cccc2C1(C)C (racemic) [Example 83]	98%	Eff. % (Uromyces appendiculatus): 100%

The next lines start with the molecule.

SMILES	logP [1, 2]	Eff. % (Puccinia recondita)	also measured
CCCc1nn(C)cc1C(=O)Nc1cccc2c1CC(CC)C2(C)C (racemic) [Example 64]	4.2[a]	–	–
CC1Cc2c(NC(=O)c3cnn(C)c3Cl)cccc2C1(C)C (centres unmarked) [Example 22]	3.44[a]	81%	Eff. % (Septoria tritici): 92%
Cc1nn(C)c(F)c1C(=O)Nc1cccc2c1CC(C)(C)C2C (centres unmarked) [Example 60]	3.5[a]	98%	Eff. % (Sphaerotheca fuliginea): 98%; Eff. % (Uromyces appendiculatus): 100%
CCC1(CC)Cc2c(N)cccc2C1C (centres unmarked) [Example III-a-18]	–	–	logP [1, 3]: 2.63[a]
CC(C)C1Cc2cccc(N)c2C1C (centres unmarked) [III-a-9]	–	–	logP [1, 3]: 2.9[a]
CCc1c(C(=O)Nc2cccc3c2CC(CC)C3(C)C)cnn1C (racemic) [Example 63]	3.83[a]	–	–
CON=C1c2cccc(NC(=O)c3c(C)nn(C)c3F)c2CC1(C)C (mixture of isomers) [Example 34]	–	71%	–
CC1c2c(N)cccc2C(C)(C)C1C (centres unmarked) [Example III-a-14]	–	–	logP [1, 3]: 2.4[a]
CCC1(CC)Cc2c(NC(=O)c3c(C)nn(C)c3C)cccc2C1C (centres unmarked) [Example 51]	3.85[a]	–	–
Cc1c(C(=O)Nc2cccc3c2CC(C)C3(C)C)c(C(F)(F)F)nn1C (centres unmarked) [Example 18]	3.83[a]	75%	–
CCCc1nn(C)cc1C(=O)Nc1cccc2c1CC(C(C)C)C2(C)C (centres unmarked) [Example 47]	4.51[a]	–	–
CC1Cc2c(N)cccc2C1(C)C (racemic) [Example III-a-3]	–	–	logP [1, 3]: 1.95[a]
CC1Cc2c(NC(=O)c3c(C(F)(F)F)nn(C)c3Cl)cccc2C1(C)C (centres unmarked) [Example 11]	4.26[a]	96%	Eff. % (Uromyces appendiculatus): 100%
Cc1nn(C)c(C)c1C(=O)Nc1cccc2c1CC(C)(C)C2C (centres unmarked) [Example 55]	3.09[a]	100%	Eff. % (Sphaerotheca fuliginea): 88%; Eff. % (Uromyces appendiculatus): 100%
CC(C)c1nn(C)cc1C(=O)Nc1cccc2c1CC(C)C2(C)C (centres unmarked) [Example 23]	3.69[a]	81%	Eff. % (Uromyces appendiculatus): 89%
CON=C1c2cccc(N)c2CC1(C)C [III-a-12]	–	–	logP [1, 3]: 2.08[a]
CCc1nn(C)c(F)c1C(=O)Nc1cccc2c1CC(C)(C)C2C (centres unmarked) [Example 14]	3.99[a]	98%	Eff. % (Uromyces appendiculatus): 100%
CC1c2cccc(N)c2CC12CCCC2 (centres unmarked) [Example III-a-7, 1′-methyl-1′,3′-dihydrospiro[cyclopentane-1,2′-inden]-4′-amine]	–	–	chromatographic logP ([1]; reversed phase HPLC columns, amines of formula (III-a), Table 2, read-out: logP): 2.39
CCC1Cc2c(NC(=O)c3c(C)nn(C)c3C(F)(F)Cl)cccc2C1(C)C (centres unmarked) [Example 58]	4.46[a]	–	–
CCC1Cc2c(N)cccc2C1(C)C (centres unmarked) [Example III-a-17]	–	–	logP [1, 3]: 2.47[a]
CC(C)C1Cc2c(N)cccc2C1(C)C (racemic) [Example III-a-2]	–	–	logP [1, 3]: 2.8[a]
Nc1cccc2c1CC1(CCCC1)C2 [III-a-4]	–	–	logP [1, 3]: 2.1[a]
Cc1nn(C)c(F)c1C(=O)Nc1cccc2c1CC(C)(C)C2 [Example 44]	–	78%	Eff. % (Uromyces appendiculatus): 98%

SMILES	logP [1, 2]	Eff. % (Puccinia recondita)	also measured
CCC1Cc2c(NC(=O)c3c(C(F)(F)F)nn(C)c3C)cccc2C1(C)C (centres unmarked) [Example 49]	4.3[a]	94%	Eff. % (Uromyces appendiculatus): 99%
Cc1c(C(=O)Nc2cccc3c2CC(C(C)C)C3(C)C)c(C(F)(F)F)nn1C (centres unmarked) [Example 54]	4.66[a]	81%	Eff. % (Uromyces appendiculatus): 83%
CCc1nn(C)c(Cl)c1C(=O)Nc1cccc2c1CC(C)C2(C)C (centres unmarked) [Example 7]	4.31[a]	96%	Eff. % (Uromyces appendiculatus): 100%
Cc1c(C(=O)Nc2cccc3c2CC(C(C)C)C3(C)C)cnn1C (racemic) [Example 62]	3.73[a]	81%	Eff. % (Uromyces appendiculatus): 99%
CCC1Cc2cccc(N)c2C1 (centres unmarked) [III-a-6]	–	–	logP [1, 3]: 1.76[a]
CCCc1nn(C)c(F)c1C(=O)Nc1cccc2c1CC(C(C)C)C2(C)C (racemic) [Example 65]	5.29[a]	–	–
Nc1cccc2c1CC(Cc1ccccc1)C2 (centres unmarked) [Example III-a-8]	–	–	logP [1, 3]: 2.54[a]
Cc1nn(C)c(C)c1C(=O)Nc1cccc2c1CC(C)(C)C2 [Example 43]	2.77[a]	89%	–
Nc1cccc2c1CC(C1CCCC1)C2 (centres unmarked) [III-a-11]	–	–	logP [1, 3]: 2.94[a]
CCCc1nn(C)c(F)c1C(=O)Nc1cccc2c1CC(CC)C2(C)C (centres unmarked) [Example 48]	4.85[a]	–	Eff. % (Sphaerotheca fuliginea): 94%
CC(C)C1Cc2cccc(N)c2C1 (racemic) [Example III-a-1]	–	–	logP [1, 3]: 2.25[a]
CCCc1nn(C)cc1C(=O)Nc1cccc2c1CC(C)C2(C)C (centres unmarked) [Example 21]	3.64[a]	75%	–
CON=C1c2cccc(NC(=O)c3c(C)nn(C)c3C)c2CC1(C)C (mixture of isomers) [Example 35]	–	79%	–
CC(C)C1Cc2c(N)cccc2C1C (centres unmarked) [Example III-a-5]	–	–	logP [1, 3]: 2.34[a]
CC(C)c1nn(C)cc1C(=O)Nc1cccc2c1CC(C(C)C)C2(C)C (racemic) [Example 61]	4.56[a]	–	–
CCCc1nn(C)c(F)c1C(=O)Nc1cccc2c1CC(C)C2(C)C (centres unmarked) [Example 19]	4.39[a]	–	–
Cc1nn(C)c(C)c1C(=O)Nc1cccc2c1CC(C(C)C)C2(C)C (centres unmarked) [Example 42]	3.87[a]	100%	Eff. % (Sphaerotheca fuliginea): 100%; Eff. % (Uromyces appendiculatus): 100%
CCC1Cc2c(NC(=O)c3cn(C)nc3C(C)C)cccc2C1(C)C (racemic) [Example 67]	4.18[a]	–	–
Cn1cc(C(=O)Nc2cccc3c2CC(O)C3)c(C(F)F)n1 (centres unmarked) [Example 1]	–	–	Eff. % (Septoria tritici): 70%
CCc1c(C(=O)Nc2cccc3c2CC(C(C)C)C3(C)C)cnn1C (centres unmarked) [Example 46]	4.21[a]	–	–
CCC1Cc2c(NC(=O)c3cnn(C)c3C)cccc2C1(C)C (centres unmarked) [Example 59]	3.42[a]	89%	Eff. % (Uromyces appendiculatus): 100%
Cc1nn(C)c(C(F)(F)Cl)c1C(=O)Nc1cccc2c1CC(C(C)C)C2(C)C (centres unmarked) [Example 53]	4.86[a]	–	–
CC1Cc2c(N)cccc2C1C (centres unmarked) [Example III-a-13]	–	–	logP [1, 3]: 1.44[a]
